Results published in PubChem BioAssay AID270 (DTP/NCI, 2004).
Several values for one entry are separate records, joined by “and”; a condition that tells them apart may be missing. Equal entries are not always repeated. Records with an inconclusive call do not appear.

Test system: BDF1 mice, s.c. Lewis lung carcinoma, T/C %
Test: NCI In Vivo Anticancer Drug Screen. Data for tumor model Lewis Lung Carcinoma (subcutaneous) in B6D2F1 (BDF1) mice
Procedure, shortened: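 Antitumor effect in vivo is scored from survival or tumor burden, reported as treated relative to vehicle controls.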

C[C@@H]1CC[C@@]2(NC1)O[C@H]1C[C@H]3[C@@H]4CC=C5C[C@@H](O)CC[C@]5(C)[C@H]4CC[C@]3(C)[C@H]1[C@@H]2C was tested, and the T/C (endpoint: mean tumor weight, dose: 12.0 mg/kg/injection, schedule: Q01DX011 (sc), vehicle: steriod suspending solution, higher = larger tumour) was 73 % of control, the T/C (endpoint: mean tumor weight, dose: 16.6 mg/kg/injection, schedule: Q01DX011 (ip), vehicle: carboxymethylcellulose (CMC), higher = larger tumour) was 56 % of control and 59 % of control and 70 % of control and the T/C (endpoint: mean tumor weight, dose: 18.0 mg/kg/injection, schedule: Q01DX011 (sc), vehicle: steriod suspending solution, higher = larger tumour) was 75 % of control. For the same molecule, the T/C (endpoint: mean tumor weight, dose: 40.0 mg/kg/injection, schedule: Q01DX011 (sc), vehicle: steriod suspending solution, higher = larger tumour) was 94 % of control, the T/C (endpoint: mean tumor weight, dose: 50.0 mg/kg/injection, schedule: Q01DX011 (ip), vehicle: carboxymethylcellulose (CMC), higher = larger tumour) was 97 % of control and the T/C (endpoint: mean tumor weight, dose: 54.0 mg/kg/injection, schedule: Q01DX011 (sc), vehicle: steriod suspending solution, higher = larger tumour) was 92 % of control. For the same molecule, the T/C (endpoint: mean tumor weight, dose: 80.0 mg/kg/injection, schedule: Q01DX011 (sc), vehicle: steriod suspending solution, higher = larger tumour) was 119 % of control, the T/C (endpoint: mean tumor weight, dose: 100.0 mg/kg/injection, schedule: Q01DX011 (sc), vehicle: steriod suspending solution, higher = larger tumour) was 83 % of control and the T/C (endpoint: mean tumor weight, dose: 200.0 mg/kg/injection, schedule: Q01DX011 (sc), vehicle: steriod suspending solution, higher = larger tumour) was 58 % of control. The T/C (endpoint: mean tumor weight, dose: 400.0 mg/kg/injection, schedule: Q01DX011 (sc), vehicle: steriod suspending solution, higher = larger tumour) was 104 % of control.

For C[N+](C)(C)c1ncnc2nc[nH]c12, the T/C (endpoint: mean tumor weight, dose: 15.0 mg/kg/injection, schedule: Q01DX011 (ip), vehicle: saline, higher = larger tumour) was 87 % of control, the T/C (endpoint: mean tumor weight, dose: 30.0 mg/kg/injection, schedule: Q01DX011 (ip), vehicle: saline, higher = larger tumour) was 100 % of control and the T/C (endpoint: mean tumor weight, dose: 60.0 mg/kg/injection, schedule: Q01DX011 (ip), vehicle: saline, higher = larger tumour) was 55 % of control. The T/C (endpoint: mean tumor weight, dose: 120.0 mg/kg/injection, schedule: Q01DX011 (ip), vehicle: saline, higher = larger tumour) was 59 % of control.

In the case of C/C=C(\C)C(=O)O[C@@H]1c2cc3c(cc2-c2c(cc(OC)c(OC)c2OC)[C@@H]2C(=O)OC[C@@H]12)OCO3, the T/C (endpoint: median survival time, dose: 1.25 mg/kg/injection, schedule: Q01DX009 (ip), vehicle: Klucel (hydroxypropylcellulose) (HPC), higher = longer survival) is reported as 99 % of control, the T/C (endpoint: median survival time, dose: 2.5 mg/kg/injection, schedule: Q01DX009 (ip), vehicle: Klucel (hydroxypropylcellulose) (HPC), higher = longer survival) is reported as 110 % of control and the T/C (endpoint: median survival time, dose: 5.0 mg/kg/injection, schedule: Q01DX009 (ip), vehicle: Klucel (hydroxypropylcellulose) (HPC), higher = longer survival) is reported as 101 % of control.

COc1cc(-c2cc(=O)c3c(OC)c(OC)c(OC)c(OC)c3o2)cc(OC)c1OC was tested, and the T/C (endpoint: mean tumor weight, dose: 50.0 mg/kg/injection, schedule: Q01DX010 (sc), vehicle: steriod suspending solution, higher = larger tumour) was 87 % of control, the T/C (endpoint: mean tumor weight, dose: 100.0 mg/kg/injection, schedule: Q01DX010 (sc), vehicle: steriod suspending solution, higher = larger tumour) was 102 % of control and the T/C (endpoint: mean tumor weight, dose: 200.0 mg/kg/injection, schedule: Q01DX010 (sc), vehicle: steriod suspending solution, higher = larger tumour) was 97 % of control.

In the case of CCc1ccccc1N1CCN(C(=O)c2cc(OC)c(OC)c(OC)c2)CC1, the T/C (endpoint: mean tumor weight, dose: 25.0 mg/kg/injection, schedule: Q01DX011 (ip), vehicle: carboxymethylcellulose (CMC), higher = larger tumour) is reported as 46 % of control and 48 % of control.

In the case of COC(=O)[C@@]12OC[C@]34[C@H]([C@@H](O)[C@@H]1O)[C@@]1(C)CC(=O)C(O)=C(C)[C@@H]1C[C@H]3OC(=O)[C@H](OC(=O)/C=C(\C)C(C)C)[C@@H]24, the T/C (endpoint: median survival time, dose: 0.12 mg/kg/injection, schedule: Q01DX009 (ip), vehicle: other, higher = longer survival) is reported as 99 % of control, the T/C (endpoint: median survival time, dose: 0.25 mg/kg/injection, schedule: Q01DX009 (ip), vehicle: other, higher = longer survival) is reported as 91 % of control and the T/C (endpoint: median survival time, dose: 0.5 mg/kg/injection, schedule: Q01DX009 (ip), vehicle: other, higher = longer survival) is reported as 92 % of control. For the same molecule, the T/C (endpoint: median survival time, dose: 1.0 mg/kg/injection, schedule: Q01DX009 (ip), vehicle: other, higher = longer survival) was 91 % of control and the T/C (endpoint: median survival time, dose: 2.0 mg/kg/injection, schedule: Q01DX009 (ip), vehicle: other, higher = longer survival) was 87 % of control.

In the case of CC(=O)c1ccc(-c2ccccc2)cc1, the T/C (endpoint: mean tumor weight, dose: 125.0 mg/kg/injection, schedule: Q01DX011 (ip), vehicle: other, higher = larger tumour) is reported as 57 % of control, the T/C (endpoint: mean tumor weight, dose: 222.0 mg/kg/injection, schedule: Q01DX011 (ip), vehicle: other, higher = larger tumour) is reported as 174 % of control and the T/C (endpoint: mean tumor weight, dose: 250.0 mg/kg/injection, schedule: Q01DX011 (ip), vehicle: other, higher = larger tumour) is reported as 73 % of control. The T/C (endpoint: mean tumor weight, dose: 333.0 mg/kg/injection, schedule: Q01DX011 (ip), vehicle: other, higher = larger tumour) was 118 % of control and the T/C (endpoint: mean tumor weight, dose: 500.0 mg/kg/injection, schedule: Q01DX011 (ip), vehicle: other, higher = larger tumour) was 86 % of control.

In the case of O=NN(CCCl)C(=O)NCCCl, the T/C (endpoint: mean tumor weight, dose: 1.57 mg/kg/injection, schedule: Q01DX011 (ip), vehicle: saline, higher = larger tumour) is reported as 78 % of control, the T/C (endpoint: mean tumor weight, dose: 3.13 mg/kg/injection, schedule: Q01DX011 (ip), vehicle: saline, higher = larger tumour) is reported as 56 % of control and the T/C (endpoint: mean tumor weight, dose: 4.0 mg/kg/injection, schedule: Q01DX011 (ip), vehicle: other, higher = larger tumour) is reported as 41 % of control. The T/C (endpoint: mean tumor weight, dose: 6.25 mg/kg/injection, schedule: Q01DX011 (ip), vehicle: saline, higher = larger tumour) was 4 % of control and 14 % of control, the T/C (endpoint: mean tumor weight, dose: 12.5 mg/kg/injection, schedule: Q01DX011 (ip), vehicle: saline, higher = larger tumour) was 3 % of control and the T/C (endpoint: median survival time, dose: 0.5 mg/kg/injection, schedule: Q08HX024 (ip), vehicle: Klucel (hydroxypropylcellulose) (HPC), higher = longer survival) was 90 % of control. For the same molecule, the T/C (endpoint: median survival time, dose: 1.0 mg/kg/injection, schedule: Q08HX024 (ip), vehicle: Klucel (hydroxypropylcellulose) (HPC), higher = longer survival) was 91 % of control, the T/C (endpoint: median survival time, dose: 5.0 mg/kg/injection, schedule: Q01DX001 (ip), vehicle: Klucel (hydroxypropylcellulose) (HPC), higher = longer survival) was 108 % of control and the T/C (endpoint: median survival time, dose: 5.0 mg/kg/injection, schedule: Q01DX001 (ip), vehicle: saline + alcohol, higher = longer survival) was 100 % of control and 104 % of control. The T/C (endpoint: median survival time, dose: 5.0 mg/kg/injection, schedule: Q01DX001 (ip), vehicle: saline with Tween-80, higher = longer survival) was 113 % of control, the T/C (endpoint: median survival time, dose: 6.7 mg/kg/injection, schedule: Q01DX005 (ip), vehicle: saline + alcohol, higher = longer survival) was 113 % of control and the T/C (endpoint: median survival time, dose: 10.0 mg/kg/injection, schedule: Q01DX001 (ip), vehicle: Klucel (hydroxypropylcellulose) (HPC), higher = longer survival) was 120 % of control. The T/C (endpoint: median survival time, dose: 10.0 mg/kg/injection, schedule: Q01DX001 (ip), vehicle: saline + alcohol, higher = longer survival) was 96 % of control and 116 % of control, the T/C (endpoint: median survival time, dose: 10.0 mg/kg/injection, schedule: Q01DX001 (ip), vehicle: saline with Tween-80, higher = longer survival) was 99 % of control and 102 % of control and the T/C (endpoint: median survival time, dose: 13.0 mg/kg/injection, schedule: Q01DX001 (ip), vehicle: saline + alcohol, higher = longer survival) was 100 % of control. The T/C (endpoint: median survival time, dose: 13.5 mg/kg/injection, schedule: Q01DX001 (ip), vehicle: Klucel (hydroxypropylcellulose) (HPC), higher = longer survival) was 160 % of control, the T/C (endpoint: median survival time, dose: 15.0 mg/kg/injection, schedule: Q01DX005 (ip), vehicle: saline + alcohol, higher = longer survival) was 71 % of control and 85 % of control and the T/C (endpoint: median survival time, dose: 20.0 mg/kg/injection, schedule: Q01DX001 (ip), vehicle: Klucel (hydroxypropylcellulose) (HPC), higher = longer survival) was 117 % of control. The T/C (endpoint: median survival time, dose: 20.0 mg/kg/injection, schedule: Q01DX001 (ip), vehicle: saline + alcohol, higher = longer survival) was 104 % of control and 121 % of control, the T/C (endpoint: median survival time, dose: 20.0 mg/kg/injection, schedule: Q01DX001 (ip), vehicle: saline with Tween-80, higher = longer survival) was 111 % of control and 119 % of control and the T/C (endpoint: median survival time, dose: 26.0 mg/kg/injection, schedule: Q01DX001 (ip), vehicle: saline + alcohol, higher = longer survival) was 117 % of control. The T/C (endpoint: median survival time, dose: 27.0 mg/kg/injection, schedule: Q01DX001 (ip), vehicle: Klucel (hydroxypropylcellulose) (HPC), higher = longer survival) was 105 % of control, the T/C (endpoint: median survival time, dose: 30.0 mg/kg/injection, schedule: Q01DX001 (ip), vehicle: saline + alcohol, higher = longer survival) was 163 % of control and the T/C (endpoint: median survival time, dose: 39.0 mg/kg/injection, schedule: Q01DX001 (ip), vehicle: saline + alcohol, higher = longer survival) was 100 % of control. For the same molecule, the T/C (endpoint: median survival time, dose: 40.0 mg/kg/injection, schedule: Q01DX001 (ip), vehicle: Klucel (hydroxypropylcellulose) (HPC), higher = longer survival) was 156 % of control, the T/C (endpoint: median survival time, dose: 40.0 mg/kg/injection, schedule: Q01DX001 (ip), vehicle: saline with Tween-80, higher = longer survival) was 121 % of control and the T/C (endpoint: median survival time, dose: 80.0 mg/kg/injection, schedule: Q01DX001 (ip), vehicle: Klucel (hydroxypropylcellulose) (HPC), higher = longer survival) was 217 % of control. For the same molecule, the T/C (endpoint: median survival time, dose: 80.0 mg/kg/injection, schedule: Q01DX001 (ip), vehicle: saline + alcohol, higher = longer survival) was 95 % of control, the T/C (endpoint: median tumor weight (est.), dose: 14.0 mg/kg/injection, schedule: Q01DX001 (ip), vehicle: saline + alcohol, higher = larger tumour) was 70 % of control and the T/C (endpoint: median tumor weight (est.), dose: 27.0 mg/kg/injection, schedule: Q01DX001 (ip), vehicle: saline + alcohol, higher = larger tumour) was 65 % of control. For the same molecule, the T/C (endpoint: median tumor weight (est.), dose: 41.0 mg/kg/injection, schedule: Q01DX001 (ip), vehicle: saline + alcohol, higher = larger tumour) was 34 % of control.

For ClCC[N-]CC[N-]CCCl.ClCC[N-]CC[N-]CCCl.[O-][Cl+3]([O-])([O-])O.[Zn+2], the T/C (endpoint: median survival time, dose: 5.0 mg/kg/injection, schedule: Q01DX009 (ip), vehicle: saline with Tween-80, higher = longer survival) was 101 % of control, the T/C (endpoint: median survival time, dose: 10.0 mg/kg/injection, schedule: Q01DX009 (ip), vehicle: saline with Tween-80, higher = longer survival) was 101 % of control and the T/C (endpoint: median survival time, dose: 20.0 mg/kg/injection, schedule: Q01DX009 (ip), vehicle: saline with Tween-80, higher = longer survival) was 105 % of control. The T/C (endpoint: median survival time, dose: 40.0 mg/kg/injection, schedule: Q01DX009 (ip), vehicle: saline with Tween-80, higher = longer survival) was 99 % of control.

With C1=CC2(OCCO2)C2CC=CC3(OCCO3)C2C1 (stereo unspecified) the T/C (endpoint: median survival time, dose: 6.25 mg/kg/injection, schedule: Q01DX009 (ip), vehicle: Klucel (hydroxypropylcellulose) (HPC), higher = longer survival) was 88 % of control, the T/C (endpoint: median survival time, dose: 12.5 mg/kg/injection, schedule: Q01DX009 (ip), vehicle: Klucel (hydroxypropylcellulose) (HPC), higher = longer survival) was 100 % of control and the T/C (endpoint: median survival time, dose: 25.0 mg/kg/injection, schedule: Q01DX009 (ip), vehicle: Klucel (hydroxypropylcellulose) (HPC), higher = longer survival) was 95 % of control and 97 % of control. The T/C (endpoint: median survival time, dose: 50.0 mg/kg/injection, schedule: Q01DX009 (ip), vehicle: Klucel (hydroxypropylcellulose) (HPC), higher = longer survival) was 93 % of control and the T/C (endpoint: median survival time, dose: 100.0 mg/kg/injection, schedule: Q01DX009 (ip), vehicle: Klucel (hydroxypropylcellulose) (HPC), higher = longer survival) was 106 % of control.
